Drawing on patent US20250115598A1 (Anaxis Pharma Pty Ltd, priority 2021, published 2025), this text covers Kd for 17 compounds.

Assay [1] addresses human RIPK3 (Homo sapiens (Human), UniProt Q9Y572). In words: KINOMEscan binding assay, human RIPK3. As to conditions: Table 21. The method in brief:
(§1)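 Kd values come from dose-response fits to the Hill equation (Hill slope −1, Levenberg–Marquardt least squares). Compound competed with bead-bound ligand for tagged kinase, and remaining kinase was measured by qPCR after elution. Dilution series: 11 points, 3-fold, 1% DMSO final, top 30,000 nM in most runs.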

Assay [2] addresses human RIPK1 (Homo sapiens (Human), UniProt Q13546). The assay is described as follows: KINOMEscan binding assay, human RIPK1. The conditions noted are these: Table 21. A digest of the protocol: as §1
In assay [3] the target is human MLKL (full length) (Homo sapiens (Human), UniProt Q8NB16). In words: KINOMEscan binding assay, human MLKL (full length). The conditions noted are these: KINOMEscan, Table 21; read-out: Human MLKL (full-length) (KD). On the procedure:
Binding affinity of the test compounds for human MLKL (full length), mouse MLKL (full length), human RIPK1 and human RIPK3 was determined using the KINOMEscan™ technology developed by DiscoverX (USA; http://www.discoverx.com). The assay was conducted according to manufacturer instructions.
Kinase assays. For most assays, kinase-tagged T7 phage strains were grown in parallel in 24-well blocks in an E. coli host derived from the BL21 strain. E. coli were grown to log-phase and infected with T7 phage from a frozen stock (multiplicity of infection=0.4) and incubated with shaking at 32° C. until lysis (90-150 minutes). The lysates were centrifuged (6,000×g) and filtered (0.2 μm) to remove cell debris. The remaining kinases were produced in HEK-293 cells and subsequently tagged with DNA for qPCR detection. […] The liganded beads were blocked with excess biotin and washed with blocking buffer (SeaBlock (Pierce), 1% BSA, 0.05% Tween 20, 1 mM DTT) to remove unbound ligand and to reduce non-specific phage binding. […] All reactions were performed in polypropylene 384-well plates in a final volume of 20 μL. […] The kinase concentration in the eluates was measured by qPCR.
An 11-point 3-fold serial dilution of each test compound was prepared in 100% DMSO at 100× final test concentration and subsequently diluted to 1× in the assay (final DMSO concentration=1%). Most Kos were determined using a compound top concentration=30,000 nM.
KD for each test compound was calculated with a standard dose-response curve using the Hill equation (equation (1)): […]
The Hill Slope was set to −1.
Curves were fitted using a non-linear least square fit with the Levenberg-Marquardt algorithm.

Bounds are passed on as bounds.

Chain of human MLKL (full length) (Q8NB16 whole entry): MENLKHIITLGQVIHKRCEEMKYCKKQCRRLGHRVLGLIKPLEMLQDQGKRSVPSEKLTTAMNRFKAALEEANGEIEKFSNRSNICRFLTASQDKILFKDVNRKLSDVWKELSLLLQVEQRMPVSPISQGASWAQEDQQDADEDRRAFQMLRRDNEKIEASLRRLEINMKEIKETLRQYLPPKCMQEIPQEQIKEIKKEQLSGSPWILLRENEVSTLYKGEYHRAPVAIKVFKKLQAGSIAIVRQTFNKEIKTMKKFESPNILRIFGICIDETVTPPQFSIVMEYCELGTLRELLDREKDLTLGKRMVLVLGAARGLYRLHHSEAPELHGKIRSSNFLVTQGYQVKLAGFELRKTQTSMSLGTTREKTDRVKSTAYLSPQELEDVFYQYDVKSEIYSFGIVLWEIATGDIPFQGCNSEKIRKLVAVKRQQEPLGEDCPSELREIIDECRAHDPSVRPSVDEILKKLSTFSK
Chain of human RIPK1 (Q13546 whole entry): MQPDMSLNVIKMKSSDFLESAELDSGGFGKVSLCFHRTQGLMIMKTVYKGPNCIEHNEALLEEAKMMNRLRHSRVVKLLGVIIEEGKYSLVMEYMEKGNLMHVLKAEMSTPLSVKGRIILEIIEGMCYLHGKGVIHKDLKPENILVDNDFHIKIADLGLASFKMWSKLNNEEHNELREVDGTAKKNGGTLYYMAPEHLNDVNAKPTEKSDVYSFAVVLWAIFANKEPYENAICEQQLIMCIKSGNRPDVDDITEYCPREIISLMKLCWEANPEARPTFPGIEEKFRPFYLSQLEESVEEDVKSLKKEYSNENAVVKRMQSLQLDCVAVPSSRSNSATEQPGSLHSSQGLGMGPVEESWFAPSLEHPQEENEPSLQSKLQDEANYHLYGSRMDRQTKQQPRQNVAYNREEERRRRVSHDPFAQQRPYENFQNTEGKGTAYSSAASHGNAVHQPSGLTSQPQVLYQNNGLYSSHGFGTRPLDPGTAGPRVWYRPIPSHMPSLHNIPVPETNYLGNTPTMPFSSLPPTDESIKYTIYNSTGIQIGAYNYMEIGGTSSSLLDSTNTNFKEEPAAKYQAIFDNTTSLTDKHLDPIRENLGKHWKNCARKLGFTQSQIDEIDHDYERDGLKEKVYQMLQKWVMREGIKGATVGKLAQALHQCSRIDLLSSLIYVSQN
Chain of human RIPK3 (Q9Y572 whole entry): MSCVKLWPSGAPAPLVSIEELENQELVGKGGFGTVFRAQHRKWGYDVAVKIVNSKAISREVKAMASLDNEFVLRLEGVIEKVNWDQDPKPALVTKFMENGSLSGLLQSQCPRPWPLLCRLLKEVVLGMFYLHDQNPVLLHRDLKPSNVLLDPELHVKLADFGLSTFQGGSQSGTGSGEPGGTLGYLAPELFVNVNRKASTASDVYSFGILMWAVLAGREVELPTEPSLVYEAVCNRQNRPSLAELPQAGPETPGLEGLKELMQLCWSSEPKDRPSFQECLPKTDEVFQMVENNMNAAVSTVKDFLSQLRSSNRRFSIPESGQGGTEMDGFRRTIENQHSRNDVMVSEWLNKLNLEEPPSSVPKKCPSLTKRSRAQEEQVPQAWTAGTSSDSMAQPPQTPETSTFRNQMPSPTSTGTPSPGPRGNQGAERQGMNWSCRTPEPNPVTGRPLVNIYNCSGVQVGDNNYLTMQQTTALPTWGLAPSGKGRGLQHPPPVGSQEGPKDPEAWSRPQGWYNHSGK

As for `C[C@H](Oc1cc(-c2nn(C)c3c(-c4cnn(C5C[C@@H]6CN(C)C[C@@H]6C5)c4)cnc(N)c23)ccc1NS(=O)(=O)C(F)F)c1ccc(F)cc1` (stereo partly drawn) [Compound 164, N-(4-(4-amino-1-methyl-7-(1-((3aR,6aS)-2-methyloctahydrocyclo-penta[c]pyrrol-5-yl)-1H-pyrazol-4-yl)-1H-pyrazolo[4,3-c]pyridin-3-yl)-2-((S)-1-(4-fluorophenyl)eth-oxy)phenyl)-1,1-difluoromethane-sulfonamide], the Kd (usually the concentration at which binding is half-saturated) is > 10 µM in assay [1], > 10 µM in assay [2] and < 0.001 µM in assay [3].

In the case of `C[C@H](Oc1cc(-c2nn(C)c3c(-c4cnn(C5CCN(C)C(C)(C)C5)c4)cnc(N)c23)ccc1NS(=O)(=O)C(F)F)c1ccc(Cl)cc1` (stereo partly drawn) [Compound 159, N-(4-(4-amino-1-methyl-7-(1-(1,2,2-trimethylpiperidin-4-yl)-1H-pyrazol-4-yl)-1H-pyrazolo[4,3-c]pyridin-3-yl)-2-((S)-1-(4-chloro-phenyl)ethoxy)phenyl)-1,1-difluoro-methanesulfonamide], the Kd in assay [1] is > 10 µM; in assay [2] it was > 10 µM; in assay [3], < 0.001 µM.

`C[C@H](Oc1cc(-c2nn(C)c3c(-c4cnn(CCN5CC(C)(C)C5)c4)cnc(N)c23)ccc1NS(=O)(=O)C(F)F)c1ccc(F)cc1` [Compound 75, (S)-N-(4-(4-amino-7-(1-(2-(3,3-dimethylazetidin-1-yl)ethyl)-1H-pyrazol-4-yl)-1-methyl-1H-pyrazolo[4,3-c]pyridin-3-yl)-2-(1-(4-fluorophenyl)ethoxy)phenyl)-1,1-difluoromethanesulfonamide]: the Kd was > 10 µM in assay [1], > 10 µM in assay [2] and < 0.001 µM in assay [3].

On to `COCC(Oc1cc(-c2nn(C)c3c(-c4cnn(C5CCOCC5)c4)cnc(N)c23)ccc1NS(=O)(=O)C(F)F)c1ccc(F)cc1` (racemic) [Compound 102, N-(4-(4-amino-1-methyl-7-(1-(tetrahydro-2H-pyran-4-yl)-1H-pyrazol-4-yl)-1H-pyrazolo[4,3-c]pyridin-3-yl)-2-(1-(4-fluorophenyl)-2-methoxyethoxy)phenyl)-1,1-difuoromethane-sulfonamide], for which the Kd was > 10 µM in assay [1], > 10 µM in assay [2] and < 0.001 µM in assay [3].

As for `C[C@H](Oc1cc(-c2nn(C)c3c(C#CC4CCNCC4)cnc(N)c23)ccc1NS(=O)(=O)C(F)F)c1ccc(F)cc1` [Compound 79, (S)—N-(4-(4-amino-1-methyl-7-(piperidin-4-ylethynyl)-1H-pyrazolo[4,3-c]pyridin-3-yl)-2-(1-(4-fluorophenyl)ethoxy)phenyl)-1,1-difluoromethanesulfonamide], the Kd in assay [1] was > 10 µM; in assay [2] it was > 10 µM; in assay [3] it was < 0.001 µM.

As for `C[C@H](Oc1cc(-c2coc3c(-c4cnn(CCO)c4)cnc(N)c23)ccc1NS(=O)(=O)C(F)F)c1ccc(F)cc1` [Compound 9, (S)-N-(4-(4-amino-7-(1-(2-hydroxyethyl)-1H-pyrazol-4-yl)furo[3,2-c]pyridin-3-yl)-2-(1-(4-fluoro-phenyl)eth-oxy)phenyl)-1,1-difluoromethane-sulfonamide], the Kd in assay [1] was > 10 µM; in assay [2], > 10 µM; in assay [3], < 0.001 µM.

For `CNCCn1cc(-c2cnc(N)c3c(-c4ccc(NS(=O)(=O)C(F)F)c(O[C@@H](C)c5ccc(F)cc5)c4)nn(C)c23)cn1` [Compound 82, (S)-N-(4-(4-amino-1-methyl-7-(1-(2-(methylamino)ethyl)-1H-pyrazol-4-yl)-1H-pyrazolo[4,3-c]pyridin-3-yl)-2-(1-(4-fluorophenyl)ethoxy)phenyl)-1,1-difluoromethanesulfonamide], the Kd in assay [1] is > 10 µM; in assay [2], > 10 µM; in assay [3] it was < 0.001 µM.

Turning to `CC(C)N(C)C(=O)C(C)n1cc(-c2cnc(N)c3c(-c4ccc(NS(=O)(=O)C(F)F)c(O[C@@H](C)c5ccc(F)cc5)c4)nn(C)c23)cn1` (stereo partly drawn) [Compound 81, 2-(4-(4-amino-3-(4-((difluoromethyl)sulfonamido)-3-((S)-1-(4-fluorophenyl)ethoxy)phenyl)-1-methyl-1H-pyrazolo[4,3-c]pyridin-7-yl)-1H-pyrazol-1-yl)-N-isopropyl-N-methylpropanamide], the dissociation constant (Kd) in assay [1] is > 10 µM; in assay [2] it was > 10 µM; in assay [3], < 0.001 µM.

Take `COCCn1cc(-c2cnc(N)c3c(-c4ccc(NS(=O)(=O)C(F)F)c(O[C@@H](C)c5ccc(F)cc5)c4)nn(C)c23)cn1` [Compound 29, (S)-N-(4-(4-amino-7-(1-(2-methoxyethyl)-1H-pyrazol-4-yl)-1-methyl-1H-pyrazolo[4,3-c]pyridin-3-yl)-2-(1-(4-fluorophenyl)ethoxy)phenyl)-1,1-difluoromethanesulfonamide]: the Kd in assay [1] is > 10 µM; in assay [2], > 10 µM; in assay [3] it was < 0.001 µM.

For the compound `C[C@H](Oc1cc(-c2nn(C)c3c(-c4ccc5[nH]c(=O)n(C)c5c4)cnc(N)c23)ccc1NS(=O)(=O)C(F)F)c1ccc(F)cc1` [Compound 160, (S)-N-(4-(4-amino-1-methyl-7-(3-methyl-2-oxo-2,3-dihydro-1H-benzo[d]imidazol-5-yl)-1H-pyrazolo[4,3-c]pyridin-3-yl)-2-(1-(4-fluorophenyl)ethoxy)phenyl)-1,1-difluoromethanesulfonamide], the Kd in assay [1] is > 10 µM; in assay [2], > 10 µM; in assay [3], < 0.001 µM.

Regarding `CC(C)n1cc(-c2cnc(N)c3c(-c4ccc(NS(=O)(=O)C(F)F)c(O[C@@H](C)c5ccc(F)cc5)c4)nn(C)c23)cn1` [Compound 31, (S)-N-(4-(4-amino-7-(1-isopropyl-1H-pyrazol-4-yl)-1-methyl-1H-pyrazolo[4,3-c]pyridin-3-yl)-2-(1-(4-fluorophenyl)ethoxy)phenyl)-1,1-difluoromethanesulfonamide], the Kd is > 10 µM in assay [1], > 10 µM in assay [2] and < 0.001 µM in assay [3].

Take `Cn1cc(-c2cnc(N)c3c(-c4ccc(NS(=O)(=O)C(F)F)c(OCc5ccc(F)cc5)c4)nn(C)c23)cn1` [Compound 16, N-(4-(4-amino-1-methyl-7-(1-methyl-1H-pyrazol-4-yl)-1H-pyrazolo[4,3-c]pyridin-3-yl)-2-((4-fluoro-benzyl)oxy)phenyl)-1,1-difluoromethane-sulfonamide]: the Kd in assay [1] is > 10 µM; in assay [2], > 10 µM; in assay [3], < 0.001 µM.

For the compound `[2H]C([2H])([2H])N1CCC(n2cc(-c3cnc(N)c4c(-c5ccc(NS(=O)(=O)C(F)F)c(O[C@@H](C)c6ccc(F)cc6)c5)nn(C)c34)cn2)CC1` [Compound 103, (S)-N-(4-(4-amino-1-methyl-7-(1-(1-(methyl-d3)piperidin-4-yl)-1H-pyrazol-4-yl)-1H-pyrazolo[4,3-c]pyridin-3-yl)-2-(1-(4-fluorophenyl)ethoxy)phenyl)-1,1-difluoromethanesulfonamide], the dissociation constant (Kd) in assay [1] was > 10 µM; in assay [2], > 10 µM; in assay [3] it was < 0.001 µM.

Regarding `C[C@H](Oc1cc(-c2nn(C)c3c(-c4ccncn4)cnc(N)c23)ccc1NS(=O)(=O)C(F)F)c1ccc(F)cc1` [Compound 40, (S)—N-(4-(4-amino-1-methyl-7-(pyrimidin-4-yl)-1H-pyrazolo[4,3-c]pyridin-3-yl)-2-(1-(4-fluorophenyl)ethoxy)phenyl)-1,1-difluoromethanesulfonamide], the Kd in assay [1] was > 10 µM; in assay [2], > 10 µM; in assay [3], < 0.001 µM.

In the case of `Cc1cc(-c2cnc(N)c3c(-c4ccc(NS(=O)(=O)C(F)F)c(O[C@@H](C)c5ccc(F)cc5)c4)nn(C)c23)ccn1` [Compound 24, (S)-N-(4-(4-amino-1-methyl-7-(2-methylpyridin-4-yl)-1H-pyrazolo[4,3-c]pyridin-3-yl)-2-(1-(4-fluorophenyl)ethoxy)phenyl)-1,1-difluoromethanesulfonamide], the Kd in assay [1] was > 10 µM; in assay [2] it was > 10 µM; in assay [3] it was < 0.001 µM.

Turning to `Nc1n[nH]c2nccc(-c3ccc(NS(=O)(=O)C(F)F)c(OCc4ccc(F)cc4)c3)c12` [Compound 66, N-(4-(3-Amino-1H-pyrazolo[3,4-b]pyridin-4-yl)-2-((4-fluorophenyl)methoxy)phenyl)-1,1-difluoromethanesulfonamide], the Kd in assay [1] was > 10 µM; in assay [2], > 10 µM; in assay [3], < 0.001 µM.

As for `C[C@H](Oc1cc(-c2nn(C)c3c(-c4cnn(CCN(C)C)c4)cnc(N)c23)ccc1NS(=O)(=O)C(F)F)c1ccc(F)cc1` [Compound 100, (S)-N-(4-(4-amino-7-(1-(2-(dimethylamino)ethyl)-1H-pyrazol-4-yl)-1-methyl-1H-pyrazolo[4,3-c]pyridin-3-yl)-2-(1-(4-fluorophenyl)ethoxy)phenyl)-1,1-difluoromethanesulfonamide], the Kd is > 10 µM in assay [1], > 10 µM in assay [2] and < 0.001 µM in assay [3].
